“And” between values parts separate entries of the source, which are not always exact repeats. Identical values can stand only once. Toxic doses and inconclusive results are not listed. No stated cut-off is given here; in the data, active means T/C of 150% or more; inactive means T/C below 125%.
Tested on: L1210 leukemia ip in BDF1 mice, survival T/C
Test: NCI In Vivo Anticancer Drug Screen. Data for tumor model L1210 Leukemia (intraperitoneal) in B6D2F1 (BDF1) mice
Settings: endpoint: mean survival time, higher = longer survival
Method in brief: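 Tumor cells were implanted, animals were treated, and survival was followed. The result divides the treated measurement by the vehicle-control measurement.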

[1] = dose: 100.0 mg/kg/injection, schedule: Q01DX001 (ip), vehicle: Klucel (hydroxypropylcellulose) (HPC)
[2] = dose: 100.0 mg/kg/injection, schedule: Q01DX009 (ip), vehicle: Klucel (hydroxypropylcellulose) (HPC)
[3] = dose: 100.0 mg/kg/injection, schedule: Q04DX002 (ip), vehicle: Klucel (hydroxypropylcellulose) (HPC)
[4] = dose: 100.0 mg/kg/injection, schedule: Q04DX003 (ip), vehicle: Klucel (hydroxypropylcellulose) (HPC)
[5] = dose: 200.0 mg/kg/injection, schedule: Q01DX001 (ip), vehicle: Klucel (hydroxypropylcellulose) (HPC)
[6] = dose: 200.0 mg/kg/injection, schedule: Q01DX009 (ip), vehicle: Klucel (hydroxypropylcellulose) (HPC)
[7] = dose: 200.0 mg/kg/injection, schedule: Q04DX002 (ip), vehicle: Klucel (hydroxypropylcellulose) (HPC)
[8] = dose: 200.0 mg/kg/injection, schedule: Q04DX003 (ip), vehicle: Klucel (hydroxypropylcellulose) (HPC)
[9] = dose: 400.0 mg/kg/injection, schedule: Q01DX001 (ip), vehicle: Klucel (hydroxypropylcellulose) (HPC)
[10] = dose: 400.0 mg/kg/injection, schedule: Q04DX003 (ip), vehicle: Klucel (hydroxypropylcellulose) (HPC)
[11] = dose: 100.0 mg/kg/injection, schedule: Q04DX003 (ip), vehicle: saline with Tween-80
[12] = dose: 200.0 mg/kg/injection, schedule: Q04DX003 (ip), vehicle: saline with Tween-80
[13] = dose: 400.0 mg/kg/injection, schedule: Q04DX003 (ip), vehicle: saline with Tween-80
[14] = dose: 12.5 mg/kg/injection, schedule: Q01DX009 (ip), vehicle: Klucel (hydroxypropylcellulose) (HPC)
[15] = dose: 25.0 mg/kg/injection, schedule: Q01DX009 (ip), vehicle: Klucel (hydroxypropylcellulose) (HPC)
[16] = dose: 100.0 mg/kg/injection, schedule: Q01DX009 (ip), vehicle: saline
[17] = dose: 100.0 mg/kg/injection, schedule: Q04DX003 (ip), vehicle: saline

Measured: T/C

COC(C(=O)O)c1ccc(Br)cc1 (centres undefined)
inactive: dose: 75.0 mg/kg/injection, schedule: Q01DX001 (ip), vehicle: acetone 95 % of control | dose: 150.0 mg/kg/injection, schedule: Q01DX001 (ip), vehicle: acetone 94 % of control

Cc1ncc(C(=O)O)n1C(C)c1ccccc1 (centres undefined)
inactive: [1] 100 % of control | [2] 94 % of control and 104 % of control | [3] 94 % of control and 100 % of control and 102 % of control | [4] 93 % of control | [5] 109 % of control | [6] 100 % of control | [7] 94 % of control and 99 % of control and 100 % of control | [8] 95 % of control | [9] 96 % of control | dose: 400.0 mg/kg/injection, schedule: Q01DX009 (ip), vehicle: Klucel (hydroxypropylcellulose) (HPC) 97 % of control and 100 % of control | dose: 400.0 mg/kg/injection, schedule: Q04DX002 (ip), vehicle: Klucel (hydroxypropylcellulose) (HPC) 98 % of control and 103 % of control and 104 % of control | [10] 96 % of control

COC(=O)CC1OCC=C2CN3CCC45C6=CC(=O)C(=O)C([N+](=O)[O-])=C6NC4C1C2CC35 (centres undefined)
inactive: dose: 5.0 mg/kg/injection, schedule: Q01DX001 (ip), vehicle: saline 97 % of control | dose: 10.0 mg/kg/injection, schedule: Q01DX001 (ip), vehicle: saline 97 % of control

CCCCN1C(=O)c2ccncc2C1=O
inactive: dose: 100.0 mg/kg/injection, schedule: Q01DX001 (ip), vehicle: saline with Tween-80 95 % of control | [11] 98 % of control | dose: 200.0 mg/kg/injection, schedule: Q01DX001 (ip), vehicle: saline with Tween-80 98 % of control | [12] 103 % of control | dose: 400.0 mg/kg/injection, schedule: Q01DX001 (ip), vehicle: saline with Tween-80 111 % of control | [13] 100 % of control

O=C(O)CCn1ccc2ccccc21
inactive: [4] 97 % of control | [8] 97 % of control | [10] 97 % of control

O=C(CCl)Nc1ccccc1
inactive: [3] 89 % of control | [7] 92 % of control

c1ccc(C(NC2=NCCCCCC2)c2ccco2)cc1 (centres undefined)
inactive: [14] 98 % of control | [15] 100 % of control

CC(=O)Nc1nc(Cl)c(N)c(SCc2ccccc2)n1
inactive: [1] 98 % of control | [4] 91 % of control | [5] 98 % of control | [8] 92 % of control | [9] 98 % of control | [10] 92 % of control

CC12CCCCC1CCC1C2CCC2(C)C(C(=O)O)CCC12 (centres undefined)
inactive: dose: 100.0 mg/kg/injection, schedule: Q04DX002 (ip), vehicle: gum acacia 89 % of control | dose: 200.0 mg/kg/injection, schedule: Q04DX002 (ip), vehicle: gum acacia 99 % of control | dose: 400.0 mg/kg/injection, schedule: Q04DX002 (ip), vehicle: gum acacia 92 % of control

Cc1cccc(C)c1N=Nc1cc[n+]([O-])cc1
inactive: dose: 6.25 mg/kg/injection, schedule: Q04DX003 (ip), vehicle: saline with Tween-80 92 % of control | dose: 12.5 mg/kg/injection, schedule: Q04DX003 (ip), vehicle: saline with Tween-80 95 % of control | dose: 25.0 mg/kg/injection, schedule: Q04DX003 (ip), vehicle: saline with Tween-80 102 % of control and 92 % of control | dose: 50.0 mg/kg/injection, schedule: Q04DX003 (ip), vehicle: saline with Tween-80 100 % of control

CCCCC1CN=C(c2ccc(NC(=O)c3ccc(C(=O)Nc4ccc(C5=NCC(CCCC)CN5)cc4)c(Cl)c3)cc2)NC1 (centres undefined)
inactive: dose: 5.0 mg/kg/injection, schedule: Q01DX015 (ip), vehicle: methylcellulose (MC) 109 % of control | dose: 22.5 mg/kg/injection, schedule: Q01DX015 (ip), vehicle: methylcellulose (MC) 123 % of control | dose: 45.0 mg/kg/injection, schedule: Q01DX015 (ip), vehicle: methylcellulose (MC) 111 % of control | dose: 62.0 mg/kg/injection, schedule: Q01DX015 (ip), vehicle: methylcellulose (MC) 109 % of control

CCCCCCCCC(=O)N(CCCC)CCCC
inactive: dose: 100.0 mg/kg/injection, schedule: Q01DX009 (ip), vehicle: carboxymethylcellulose (CMC) 97 % of control and 100 % of control | dose: 100.0 mg/kg/injection, schedule: Q04DX002 (ip), vehicle: carboxymethylcellulose (CMC) 94 % of control | dose: 200.0 mg/kg/injection, schedule: Q01DX009 (ip), vehicle: carboxymethylcellulose (CMC) 93 % of control and 100 % of control | dose: 200.0 mg/kg/injection, schedule: Q04DX002 (ip), vehicle: carboxymethylcellulose (CMC) 93 % of control | dose: 400.0 mg/kg/injection, schedule: Q01DX009 (ip), vehicle: carboxymethylcellulose (CMC) 89 % of control | dose: 400.0 mg/kg/injection, schedule: Q04DX002 (ip), vehicle: carboxymethylcellulose (CMC) 93 % of control

C[N+](C)(C)CCCCCC[N+](C)(C)C
inactive: dose: 25.0 mg/kg/injection, schedule: Q01DX009 (ip), vehicle: saline 102 % of control | dose: 25.0 mg/kg/injection, schedule: Q04DX003 (ip), vehicle: saline 108 % of control | dose: 50.0 mg/kg/injection, schedule: Q01DX009 (ip), vehicle: saline 104 % of control | dose: 50.0 mg/kg/injection, schedule: Q04DX003 (ip), vehicle: saline 97 % of control | [16] 96 % of control | [17] 94 % of control and 89 % of control

Cc1ccc(S(=O)(=O)CCN2CCc3ccccc3C2)cc1
inactive: dose: 100.0 mg/kg/injection, schedule: Q01DX001 (ip), vehicle: saline 103 % of control | dose: 200.0 mg/kg/injection, schedule: Q01DX001 (ip), vehicle: saline 100 % of control | dose: 400.0 mg/kg/injection, schedule: Q01DX001 (ip), vehicle: saline 97 % of control

CC(C)C(C(=O)O)N1C(=O)C2C3C=CC(C3)C2C1=O (centres undefined)
inactive: [11] 102 % of control | [12] 102 % of control | [13] 97 % of control

CCC1CCCCC1(O)CC (centres undefined)
inactive: [16] 96 % of control | dose: 200.0 mg/kg/injection, schedule: Q01DX009 (ip), vehicle: saline 98 % of control

CSc1nnc(-c2ccncc2)s1
inactive: [17] 104 % of control | dose: 200.0 mg/kg/injection, schedule: Q04DX003 (ip), vehicle: saline 107 % of control

Nc1nc(N)c2ncn(C3CC(CO)C(O)C3O)c2n1 (centres undefined)
inactive: dose: 6.25 mg/kg/injection, schedule: Q01DX009 (ip), vehicle: saline with Tween-80 91 % of control | dose: 12.5 mg/kg/injection, schedule: Q01DX009 (ip), vehicle: saline with Tween-80 98 % of control | dose: 25.0 mg/kg/injection, schedule: Q01DX009 (ip), vehicle: saline with Tween-80 102 % of control

Nc1ccc(-c2cc3ccccc3oc2=O)cc1
inactive: dose: 6.25 mg/kg/injection, schedule: Q04DX002 (ip), vehicle: Klucel (hydroxypropylcellulose) (HPC) 100 % of control and 119 % of control | dose: 12.5 mg/kg/injection, schedule: Q04DX002 (ip), vehicle: Klucel (hydroxypropylcellulose) (HPC) 92 % of control and 111 % of control | dose: 25.0 mg/kg/injection, schedule: Q04DX002 (ip), vehicle: Klucel (hydroxypropylcellulose) (HPC) 92 % of control and 102 % of control

Cc1nc(-c2ccc(N=Cc3ccc(N(CCOS(C)(=O)=O)CCOS(C)(=O)=O)cc3Cl)cc2)c(C)s1
inactive: [14] 114 % of control | [15] 111 % of control

CCOC(CNC(=O)c1cccc([N+](=O)[O-])c1)OCC
inactive: dose: 50.0 mg/kg/injection, schedule: Q01DX009 (ip), vehicle: Klucel (hydroxypropylcellulose) (HPC) 87 % of control | [2] 98 % of control | [6] 102 % of control
